≈ marks a conversion by molar mass, not a printed value.
Key:
physchem = details: pH 7, aqueous buffer
[1] = GastroPlus (ACAT) simulation of absorption and pharmacokinetics; details: estimated based on clinical data
Description: GastroPlus™ is a computer program that simulates absorption and pharmacokinetics for orally dosed drugs.
GastroPlus™ was used to simulate the absorption and pharmacokinetics of the reference and test formulations.
The drug release profiles were used by the software to calculate the drug concentration in each compartment. The estimated human permeability data were computed using a modification of the human fasted log D absorption model to account for permeability. The model then calculated the fraction of the dose absorbed based on the ACAT model using drug concentration, permeability, surface area, and transit time in each compartment. Pharmacokinetic parameters, e.g. volume of distribution, clearance, and micro-constants were added to the software in the pharmacokinetic page, which enabled the software to calculate plasma concentration—time curves.
In the physiology page, a user-supplied physiology file was provided to the program as an input file, consisting of the following transit times for each compartment (hr): 0.1, 0.25, 0.5, 0.5, 1.0, 1.0, 1.0, 8.0, and 24.0 hr.
The model was used to evaluate the performance of the dosage forms of the invention.

[2] = in vitro dissolution test of solubility-improved forms in MFD solution (microcentrifuge); type: physicochemical; details: MFD solution (PBS pH 6.5, 0.5 wt % NaTC/POPC), 37° C., 1000 μgA/mL if all dissolved
Experimental: An in vitro dissolution test was used to determine the dissolution performance of the HPMCAS SDD. […] The test was run in duplicate. The test tubes were placed in a 37° c. temperature-controlled chamber, and an MFD solution consisting of 1.8 mL PBS at pH 6.5 and 290 mosm/kg, containing 7.3 mm sodium taurocholic acid and 1.4 mm of 1-palmitoyl-2-oleyl-sn-glycero-3-phosphocholine (0.5 wt % NaTC/POPC) was added to each tube. The samples were mixed with a vortex mixer for one minute, then centrifuged at 13,000 g and 37° C. for one minute. The resulting supernatant solution was then sampled and diluted 1:5 (by volume) with methanol and analyzed by high-performance liquid chromatography (HPLC). HPLC analysis was performed using a Zorbax SB-C8 column. The mobile phase consisted of 45% 5 mm triethanolamine, adjusted to pH 7.0, and 55% acetonitrile, with a flow rate of 1.5 mL/min. UV absorbance was measured at 254 nm. The contents of each tube were mixed on the vortex mixer and allowed to stand undisturbed at 37° C. until the next sample was taken. Samples were collected at 4, 10, 20, 40, 90, and 1200 minutes.
The concentrations of drug obtained in these samples were used to determine the maximum dissolved concentration of drug and the area under the concentration-versus-time curve during the initial 90 minutes (MDC90 and DAUC90, respectively). […]

[3] = in vitro membrane permeation test (maximum drug flux); type: physicochemical; details: MFD feed solution 1000 μg/mL, permeate 20 wt % decanol in decane, 37° C., fit 0 to 60 minutes
Experimental: The NP composition was evaluated in vitro using a membrane permeation test as follows. An Accurel® PP 1 E microporous polypropylene membrane was obtained from Membrana GmbH (Wuppertal, Germany). The membrane was washed in isopropyl alcohol and rinsed in methanol in a sonicating bath for one minute at ambient temperature, and then allowed to air dry at ambient temperature. The feed side of the membrane was then plasma-treated to render it hydrophilic by placing a sample of the membrane in a plasma chamber. The atmosphere of the plasma chamber was saturated with water vapor at a pressure of 550 mTorr. A plasma was then generated using radio frequency (RF) power inductively coupled into the chamber via annular electrodes at a power setting of 50 Watts for 45 seconds. The contact angle of a drop of water placed on the surface of the plasma-treated membrane was about 40°. […]
To form the feed solution, a 13.33 mg sample of the solid NP composition was weighed into the feed reservoir. […] Samples were then diluted in 250 μL IPA and analyzed using HPLC. […] UV absorbance was measured at 254 nm.
The maximum flux of drug across the membrane (in units of μg/cm^2-min) was determined by performing a least-squares fit to the concentration versus time data from 0 to 60 minutes to obtain the slope, multiplying the slope by the permeate volume (5 mL), and dividing by the membrane area (4.9 cm^2).

| solubility (physchem) [µg/mL] | human permeability (Peff) [1] [cm/s] | DAUC90 (area under the concentration-versus-time curve during the initial 90 minutes) [2] [min*μgA/mL] | MDC90 (maximum dissolved concentration of drug during the initial 90 minutes) [2] [μgA/mL] | Maximum Drug Flux [3] [μg/cm^2-min] | Compound |
| --- | --- | --- | --- | --- | --- |
| 11.6 (≈ 30.4 µM) | 0.00011262 |  |  |  | Cc1ccc(-c2cc(C(F)(F)F)nn2-c2ccc(S(N)(=O)=O)cc2)cc1 [celecoxib] |
|  |  | 4100 | 60 | 1.0 | Cc1ccc(-c2cc(C(F)(F)F)nn2-c2ccc(S(N)(=O)=O)cc2)cc1 [Crystalline celecoxib, celecoxib] |

— patent US20100233272A1 (priority 2007, published 2010)
